Data taken from patent US20040033276A1, “Coating composition for cereals having a preventive or treating effect on diabetes and cereals coated thereby” (priority 2002, published 2004).

Test system: α-glucosidase
Experiment: Inhibition of α-glucosidase by extracts of herb medicine
Type: biochemical
Settings: 0.1 ml extract
Method: Inhibitory activities of various herb extracts on the activity of α-glucosidase, which catalyzes the digestion of a polysaccharide to monosaccharides, were examined as follows. Extracts of various herb medicines listed in Table 4 below were prepared in accordance with the method of Reference Example 2. Added to 0.27 ml of 2 mM substrate (p-nitrophenyl-α-D-glucopyranoside, Sigma, U.S.A.) were 0.03 ml of α-glucosidase(Sigma, U.S.A.), 0.2 ml of 20 mM phosphate buffer (pH 7.0) and 0.1 ml of respective extracts obtained above. The resulting mixture was incubated in a 37° C. thermostat(Vision Science, Korea) for 30 minutes, and 0.5 ml of 1 M glycine-NaOH (pH 9.0) was added thereto to stop the reaction. […] Negative control was treated with distilled water instead of the herb extract, and positive control, with acarbose(Glucobay™, Bayer) and DNJ (Deoxynojirimycin, Dep. Seruculture & Entomology, NIAST), which are representative α-glucosidase inhibitors. Activities of the respective extracts for inhibiting α-glucosidase were calculated by the following equation and the result is shown in Table 4. Inhibition (%)=(1−Absorbance of a sample/Absorbance of the negative control)×100

Structure (SMILES): OC[C@H]1NC[C@H](O)[C@@H](O)[C@@H]1O [DNJ, Deoxynojirimycin]
- Inhibition (%) (relative to negative control): 80.79%
- Absorbance (405 nm, 37° C., 30 minutes): 0.7641 ± 0.0021
